# Experimental data as given in ChEMBL document CHEMBL4680149, “Biological evaluation and chemoproteomics reveal potential antibacterial targets of a cajaninstilbene-acid analogue” (Eur J Med Chem, 2020).
# Activity calls are given as the source filed them. The calls are words filed in the database; no cut-off is given here.
# Tests used:
# Staphylococcus aureus [1] = experiment: Antibacterial activity against Staphylococcus aureus ATCC 25923 assessed as reduction in bacterial growth incubated for 16 hrs by broth microdilution method; format: functional
# Staphylococcus aureus [2] = experiment: Binding affinity to rpsH in methicillin resistant Staphylococcus aureus ATCC 43300 assessed as protein labeling at 5 uM incubated for 1 hr followed by UV irradiation for 20 mins by pull down based in-gel fluorescence scanning analysis; conditions: time 80.0 min
# Staphylococcus aureus [3] = experiment: Binding affinity to moaB in Staphylococcus aureus ATCC 25923 assessed as protein labeling at 5 uM incubated for 1 hr followed by UV irradiation for 20 mins by pull down based in-gel fluorescence scanning analysis; conditions: time 80.0 min
# Staphylococcus aureus [4] = experiment: (§1) Binding affinity to modA in Staphylococcus aureus ATCC 25923 assessed as protein labeling at 5 uM incubated for 1 hr in presence of (E)-6-(2-fluorostyryl)-2,4-dihydroxy-3-(3-methylbut-2-enyl)benzoic acid followed by UV irradiation for 20 mins by pull down based in-gel fluorescence scanning analysis; conditions: time 80.0 min
# Staphylococcus aureus [5] = experiment: Binding affinity to YidC in Staphylococcus aureus ATCC 25923 assessed as protein labeling at 5 uM incubated for 1 hr in presence of (E)-6-(2-fluorostyryl)-2,4-dihydroxy-3-(3-methylbut-2-enyl)benzoic acid followed by UV irradiation for 20 mins by pull down based in-gel fluorescence scanning analysis; conditions: time 80.0 min
# Staphylococcus aureus [6] = experiment: Binding affinity to HsIU/ClpY in methicillin resistant Staphylococcus aureus ATCC 43300 assessed as protein labeling at 5 uM incubated for 1 hr followed by UV irradiation for 20 mins by pull down based in-gel fluorescence scanning analysis; conditions: time 80.0 min
# Staphylococcus aureus [7] = experiment: Binding affinity to PgsA in Staphylococcus aureus ATCC 25923 assessed as protein labeling at 5 uM incubated for 1 hr followed by UV irradiation for 20 mins by pull down based in-gel fluorescence scanning analysis; conditions: time 80.0 min
# Staphylococcus aureus [8] = experiment: Bacteriostatic activity against Staphylococcus aureus ATCC 25923 assessed as reduction in bacterial growth at 4 ug/ml incubated for 16 hrs by Kirby-Bauer test method; format: functional, organism-based; conditions: dose 4.0 µg/ml
# Staphylococcus aureus [9] = experiment: Binding affinity to YidC in methicillin resistant Staphylococcus aureus ATCC 43300 assessed as protein labeling at 5 uM incubated for 1 hr followed by UV irradiation for 20 mins by pull down based in-gel fluorescence scanning analysis; conditions: time 80.0 min
# Staphylococcus aureus [10] = experiment: Binding affinity to PgsA in Staphylococcus aureus ATCC 25923 assessed as protein labeling at 5 uM incubated for 1 hr in presence of (E)-6-(2-fluorostyryl)-2,4-dihydroxy-3-(3-methylbut-2-enyl)benzoic acid followed by UV irradiation for 20 mins by pull down based in-gel fluorescence scanning analysis; conditions: time 80.0 min
# Staphylococcus aureus [11] = experiment: Binding affinity to moaB in Staphylococcus aureus ATCC 25923 assessed as protein labeling at 5 uM incubated for 1 hr in presence of (E)-6-(2-fluorostyryl)-2,4-dihydroxy-3-(3-methylbut-2-enyl)benzoic acid followed by UV irradiation for 20 mins by pull down based in-gel fluorescence scanning analysis; conditions: time 80.0 min
# Staphylococcus aureus [12] = experiment: (§2) Binding affinity to YidC in methicillin resistant Staphylococcus aureus ATCC 43300 assessed as protein labeling at 5 uM incubated for 1 hr in presence of (E)-6-(2-fluorostyryl)-2,4-dihydroxy-3-(3-methylbut-2-enyl)benzoic acid followed by UV irradiation for 20 mins by pull down based in-gel fluorescence scanning analysis; conditions: time 80.0 min
# Staphylococcus aureus [13] = experiment: Binding affinity to modA in methicillin resistant Staphylococcus aureus ATCC 43300 assessed as protein labeling at 5 uM incubated for 1 hr followed by UV irradiation for 20 mins by pull down based in-gel fluorescence scanning analysis; conditions: time 80.0 min
# Staphylococcus aureus [14] = experiment: Binding affinity to His-tagged recombinant Staphylococcus aureus PgsA expressed in Escherichia coli Rosetta DE3 at 5 uM incubated for 1 hr in presence of (E)-6-(2-fluorostyryl)-2,4-dihydroxy-3-(3-methylbut-2-enyl)benzoic acid followed by UV irradiation for 20 mins by in-gel fluorescence scanning analysis; conditions: time 80.0 min
# Staphylococcus aureus [15] = experiment: Binding affinity to YidC in Staphylococcus aureus ATCC 25923 assessed as protein labeling at 5 uM incubated for 1 hr followed by UV irradiation for 20 mins by pull down based in-gel fluorescence scanning analysis; conditions: time 80.0 min
# Staphylococcus aureus [16] = experiment: as §2, with “HsIU/ClpY” for “YidC”; conditions: time 80.0 min
# Staphylococcus aureus [17] = experiment: Binding affinity to HsIU/ClpY in Staphylococcus aureus ATCC 25923 assessed as protein labeling at 5 uM incubated for 1 hr followed by UV irradiation for 20 mins by pull down based in-gel fluorescence scanning analysis; conditions: time 80.0 min
# Staphylococcus aureus [18] = experiment: Binding affinity to CshA in methicillin resistant Staphylococcus aureus ATCC 43300 assessed as protein labeling at 5 uM incubated for 1 hr followed by UV irradiation for 20 mins by pull down based in-gel fluorescence scanning analysis; conditions: time 80.0 min
# Staphylococcus aureus [19] = experiment: as §1, with “HsIU/ClpY” for “modA”; conditions: time 80.0 min
# Staphylococcus aureus [20] = experiment: as §2, with “CshA” for “YidC”; conditions: time 80.0 min
# Staphylococcus aureus [21] = experiment: Binding affinity to moaB in methicillin resistant Staphylococcus aureus ATCC 43300 assessed as protein labeling at 5 uM incubated for 1 hr followed by UV irradiation for 20 mins by pull down based in-gel fluorescence scanning analysis; conditions: time 80.0 min
# Staphylococcus aureus [22] = experiment: as §2, with “moaB” for “YidC”; conditions: time 80.0 min
# Staphylococcus aureus [23] = experiment: as §2, with “rpsH” for “YidC”; conditions: time 80.0 min
# Staphylococcus aureus [24] = experiment: Binding affinity to rpsH in Staphylococcus aureus ATCC 25923 assessed as protein labeling at 5 uM incubated for 1 hr followed by UV irradiation for 20 mins by pull down based in-gel fluorescence scanning analysis; conditions: time 80.0 min
# Staphylococcus aureus [25] = experiment: Binding affinity to CshA in Staphylococcus aureus ATCC 25923 assessed as protein labeling at 5 uM incubated for 1 hr followed by UV irradiation for 20 mins by pull down based in-gel fluorescence scanning analysis; conditions: time 80.0 min
# Staphylococcus aureus [26] = experiment: Binding affinity to CshA in Staphylococcus aureus ATCC 25923 assessed as protein labeling at 5 uM incubated for 1 hr in presence of (E)-6-(2-fluorostyryl)-2,4-dihydroxy-3-(3-methylbut-2-enyl)benzoic acid followed by UV irradiation for 20 mins by pull down based in-gel fluorescence scanning analysis; conditions: time 80.0 min
# Staphylococcus aureus [27] = experiment: as §2, with “modA” for “YidC”; conditions: time 80.0 min
# Staphylococcus aureus [28] = experiment: Binding affinity to modA in Staphylococcus aureus ATCC 25923 assessed as protein labeling at 5 uM incubated for 1 hr followed by UV irradiation for 20 mins by pull down based in-gel fluorescence scanning analysis; conditions: time 80.0 min
# Staphylococcus aureus [29] = experiment: as §2, with “PgsA” for “YidC”; conditions: time 80.0 min
# Staphylococcus aureus [30] = experiment: Binding affinity to rpsH in Staphylococcus aureus ATCC 25923 assessed as protein labeling at 5 uM incubated for 1 hr in presence of (E)-6-(2-fluorostyryl)-2,4-dihydroxy-3-(3-methylbut-2-enyl)benzoic acid followed by UV irradiation for 20 mins by pull down based in-gel fluorescence scanning analysis; conditions: time 80.0 min
# Staphylococcus aureus [31] = experiment: Binding affinity to PgsA in methicillin resistant Staphylococcus aureus ATCC 43300 assessed as protein labeling at 5 uM incubated for 1 hr followed by UV irradiation for 20 mins by pull down based in-gel fluorescence scanning analysis; conditions: time 80.0 min
# Staphylococcus aureus [32] = experiment: Antibacterial activity against methicillin resistant Staphylococcus aureus ATCC 43300 persisters assessed as reduction in colony formation at 40 ug/ml incubated for 8 hrs in presence of 50 ug/ml Ca2+ by colony counting method; format: functional, organism-based; conditions: dose 40.0 µg/ml
# RAW264.7 = experiment: Cytotoxicity against mouse RAW264.7 cells assessed as reduction in cell viability incubated for 48 hrs by MTT assay; format: cell-based; conditions: RAW264.7, 48 h
# Staphylococcus aureus [33] = experiment: Antibacterial activity against methicillin resistant Staphylococcus aureus ATCC 43300 persisters assessed as eradication of colony formation at 2X MIC incubated for 4 hrs by colony counting method; format: functional, organism-based
# Staphylococcus aureus [34] = experiment: Bacteriostatic activity against Staphylococcus aureus ATCC 25923 assessed as reduction in bacterial growth at 128 ug/ml incubated for 16 hrs by Kirby-Bauer test method; format: functional, organism-based; conditions: dose 128.0 µg/ml
# Staphylococcus aureus [35] = experiment: Antibacterial activity against methicillin resistant Staphylococcus aureus ATCC 43300 persisters assessed as reduction in colony formation at 4 ug/ml incubated for 8 hrs by colony counting method; format: functional, organism-based; conditions: dose 4.0 µg/ml
# Staphylococcus aureus [36] = experiment: Antibacterial activity against methicillin resistant Staphylococcus aureus ATCC 43300 persisters assessed as reduction in colony formation at 40 ug/ml incubated for 8 hrs by colony counting method; format: functional, organism-based; conditions: dose 40.0 µg/ml
# Staphylococcus aureus [37] = experiment: Resistance index, ratio of MIC for antibacterial activity against Staphylococcus aureus ATCC 25923 measured after 60 days of serial passage to MIC for antibacterial activity against Staphylococcus aureus ATCC25923 measured after 16 hrs; format: functional
Compound,Activity (Staphylococcus aureus [2]),Activity (Staphylococcus aureus [3]),Activity (Staphylococcus aureus [6]),Activity (Staphylococcus aureus [7]),Activity (Staphylococcus aureus [9]),Activity (Staphylococcus aureus [13]),Activity (Staphylococcus aureus [15]),Activity (Staphylococcus aureus [17]),Activity (Staphylococcus aureus [18]),Activity (Staphylococcus aureus [21]),Activity (Staphylococcus aureus [24]),Activity (Staphylococcus aureus [25]),Activity (Staphylococcus aureus [28]),Activity (Staphylococcus aureus [31]),further results
C#CCCC1(CCOc2ccc(/C=C/c3cc(OC)c(CC=C(C)C)c(O)c3C(=O)O)c(F)c2)N=N1,Active,Active,Active,Active,Active,Active,Active,Active,Active,Active,Active,Active,Active,Active,MIC (Staphylococcus aureus [1]): 8 mg/L; Activity (Staphylococcus aureus [4]): inactive; Activity (Staphylococcus aureus [5]): inactive; Activity (Staphylococcus aureus [8]): Active; Activity (Staphylococcus aureus [10]): inactive; Activity (Staphylococcus aureus [11]): inactive; Activity (Staphylococcus aureus [12]): inactive; Activity (Staphylococcus aureus [14]): inactive; Activity (Staphylococcus aureus [16]): inactive; Activity (Staphylococcus aureus [19]): inactive; Activity (Staphylococcus aureus [20]): inactive; Activity (Staphylococcus aureus [22]): inactive; Activity (Staphylococcus aureus [23]): inactive; Activity (Staphylococcus aureus [26]): inactive; Activity (Staphylococcus aureus [27]): inactive; Activity (Staphylococcus aureus [29]): inactive; Activity (Staphylococcus aureus [30]): inactive
CCCCCCCCCC(=O)N[C@@H](Cc1c[nH]c2ccccc12)C(=O)N[C@H](CC(N)=O)C(=O)N[C@@H](CC(=O)O)C(=O)N[C@@H]1C(=O)NCC(=O)N[C@@H](CCCN)C(=O)N[C@@H](CC(=O)O)C(=O)N[C@H](C)C(=O)N[C@@H](CC(=O)O)C(=O)NCC(=O)N[C@H](CO)C(=O)N[C@@H]([C@H](C)CC(=O)O)C(=O)N[C@@H](CC(=O)c2ccccc2N)C(=O)O[C@@H]1C,–,–,–,–,–,–,–,–,–,–,–,–,–,–,Activity (Staphylococcus aureus [32]): Active
COc1cc(/C=C/c2ccc(C(F)(F)F)cc2)c(C(=O)O)c(O)c1CC=C(C)C,–,–,–,–,–,–,–,–,–,–,–,–,–,–,IC50 (RAW264.7): 50.6 µM; Activity (Staphylococcus aureus [33]): Active
C#CCCC1(CCOc2ccccc2)N=N1,inactive,inactive,inactive,inactive,inactive,inactive,inactive,inactive,inactive,inactive,inactive,inactive,inactive,inactive,Activity (Staphylococcus aureus [34]): inactive
CO[C@H]1/C=C/O[C@@]2(C)Oc3c(C)c(O)c4c(O)c(c(/C=N/N5CCN(C)CC5)c(O)c4c3C2=O)NC(=O)/C(C)=C\C=C\[C@H](C)[C@H](O)[C@@H](C)[C@@H](O)[C@@H](C)[C@H](OC(C)=O)[C@@H]1C,–,–,–,–,–,–,–,–,–,–,–,–,–,–,Activity (Staphylococcus aureus [35]): Active
O=C(O)c1cn(C2CC2)c2cc(N3CCNCC3)c(F)cc2c1=O [CIPROFLOXACIN],–,–,–,–,–,–,–,–,–,–,–,–,–,–,Activity (Staphylococcus aureus [36]): Active; Ratio (Staphylococcus aureus [37]): 50
